The values below come from patent US20050282772A1, “New dietary supplement composition for obesity and inflammation” (priority 2004, published 2005).

The conditions of data set [1]: in vivo; cited from earlier work.
Data set [2] relates to 5-Lipoxygenase. The data set is described as follows: 5-Lipoxygenase inhibitory activity, colorimetric method (ferric xylenol orange). The data set is classed as biochemical. As for the experimental part:
5-Lipoxygenase Activity: The new phytochemical compositions were screened for their 5-Lipoxygenase inhibitory potential using colorimetric method. The assay mixture contained 50 mM phosphate buffer pH 6.3, 5-Lipoxygenase, various concentrations of test substances in dimethyl sulphoxide and linoleic acid in a total volume of 0.5 mL, after 5 min incubation of above reaction mixture, 0.5 mL ferric xylenol orange reagent was added and OD was measured after two minutes at 585 nm using spectrophotometer. Controls were run along with test in a similar manner except using vehicle instead of test substance solution. Percent inhibition was calculated by comparing absorbance of test solution with that of control. The new phytochemical compositions of this invention are found to show 5-lipoxygenase activity (Table 1; 5-lipoxygenase activity is expressed in % of inhibition at 100 μg concentrations; higher the % inhibitory values, higher is the activity).

Data set [3] in a line: Superoxide free radical-scavenging activity by NBT (nitro blue tetrazolium) method. As for the experimental part: Superoxide Free Radical-Scavenging Activity. The superoxide free radical-scavenging activity was determined by the NBT (nitro blue tetrazolium) method. The reaction mixture contained EDTA (6.6 mM), NaCN (3 μg), riboflavin (2 μM), NBT (50 μM), various concentrations of the test drug in ethanol and a phosphate buffer (58 mM, pH 7.8) in a final volume of 3 ml. Optical density was measured at 560 nm. The test tubes were uniformly illuminated with an incandescent lamp for 15 min, after which the optical density was measured again at 560 nm. The percentage inhibition and superoxide radical generation was measured by comparing the absorbance values of the control and those of the test compounds.
(§1) The new phytochemical compositions of this invention are found to show antioxidant activity (Table 1; antioxidant activity is measured by two different mechanisms (a) Nitro blue tetrazolium (NBT) (b) DPPH free radical scavenging methods and are expressed in % of inhibition at 500 μg concentrations; higher the % inhibitory values, higher is the activity).

The nature of data set [4]: DPPH free radical scavenging activity. As for the experimental part:
DPPH Free Radical Scavenging Activity. DPPH (1,1-diphenyl-2-picryl-hydrazyl) radical scavenging activity was measured based on the reduction of methanolic solution of the colored DPPH. Free radical scavenging ability of the test drug in ethanol added to the methanolic solution of DPPH is […] to the difference in initial and final absorption of DPPH solution at 516 nm. The reaction mixture contained 1×10^−4 mM methanolic solution of DPPH and various concentrations of test drugs. The percentage inhibition was determined by comparing the absorbance values of test and control tubes.
as §1

The conditions of data set [5]: similar active dose; animal study; cited from earlier work.

As for `N[C@@H](Cc1c[nH]c2ccc(O)cc12)C(=O)O` [Composition 5-HTP, 5-Hydroxytryptophan], in data set [1], the LD50 (in general, the dose expected to kill half of the subjects tested) is recorded as greater than 2500 mg/kg.
`Cl.N[C@H]1C(O)O[C@H](CO)[C@@H](O)[C@@H]1O` (some centres unmarked) [Glucosamine HCl, glucosamine hydrochloride]: the “% inhibition of 5-LOX activity at 100 μg concentrations” value in data set [2] amounted to 0%. Also, the “% inhibition of NBT free radical scavenging activity at 500 μg concentrations” value in data set [3] was determined as 5.6%. Besides, the “% inhibition of DPPH free radical scavenging activity at 500 μg concentrations” value in data set [4] is 2.8%.
With `CCCCC1C(=O)N(c2ccccc2)N(c2ccccc2)C1=O` [phenylbutazone], in data set [5], the ulcerogan index is recorded as 1.7.
For the compound “Calcium, potassium salt of (−)-HCA [HCA (70%)]”, in data set [2], the “% inhibition of 5-LOX activity at 100 μg concentrations” value turned out to be 0.2%. Moreover, in data set [3], the “% inhibition of NBT free radical scavenging activity at 500 μg concentrations” value worked out at 25.5%. In data set [4], the “% inhibition of DPPH free radical scavenging activity at 500 μg concentrations” value was found to be 0%.
